The source of these data is PMC9136103 (The Journal of Biological Chemistry, 2022).

Assay [1] has as its target T1, human ornithine aminotransferase (hOAT) (Homo sapiens, UniProt P04181).
T1 construct: gene OAT; t-hOAT expressed as MBP fusion, MBP tag removed
T1 sequence (P04181 26-439 limits assumed): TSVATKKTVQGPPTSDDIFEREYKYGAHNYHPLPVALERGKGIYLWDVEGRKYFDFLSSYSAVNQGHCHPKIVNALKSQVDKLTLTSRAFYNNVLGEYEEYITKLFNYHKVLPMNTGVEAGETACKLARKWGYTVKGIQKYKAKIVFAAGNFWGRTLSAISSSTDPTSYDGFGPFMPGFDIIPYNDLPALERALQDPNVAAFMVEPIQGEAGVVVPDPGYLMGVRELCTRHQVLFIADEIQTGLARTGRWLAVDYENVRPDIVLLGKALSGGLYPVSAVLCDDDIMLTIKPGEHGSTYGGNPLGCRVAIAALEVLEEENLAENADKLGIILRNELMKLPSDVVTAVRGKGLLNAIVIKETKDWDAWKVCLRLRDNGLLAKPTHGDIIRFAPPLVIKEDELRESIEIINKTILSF
Put plainly: crystal structure by soaking (~[…] Å); UV-Vis titration Kd. Type of assay: binding.

The target in assay [2] is T1, human ornithine aminotransferase (hOAT). Put plainly: stopped-flow transient-state kinetics, purified enzyme. The class given is biochemical. As to conditions: read-out: Dissociation constant (Kd).
Assay [3] shares this target. Put plainly: stopped-flow transient-state kinetics, purified enzyme (Kd not determined). Type of assay: biochemical.
For assay [4] the target is unchanged. Kind of assay: crystal structure by soaking (~[…] Å); stopped-flow kinetics Kd. Type of assay: biochemical.

The term Kd denotes the equilibrium constant for the complex coming apart. With `NCCCC(=O)O` [GABA, γ-aminobutyric acid], the Kd in assay [1] was determined as 110 ± 15 µM.
Consider `NCCC[C@H](N)C(=O)O` [L-Orn, L-ornithine], for which the Kd in assay [2] was found to be 4700 ± 290 µM.
With `NCC[C@H](N)C(=O)O` [DABA, L-2,4-diaminobutyric acid], the klim/Kd in assay [3] came to 0.249 ± 0.006 M⁻¹ s⁻¹.
In turn, `NCCCCC(=O)O` [AVA, 5-aminovaleric acid] gave a Kd in assay [4] of 735 ± 78 µM.
